Measurements as given in patent publication US9353141B2, “Galectoside inhibitors of galectins” (GALECTO BIOTECH AB, priority 2012, dated 2016).

How the values were obtained:
Experiment in all cases: Fluorescence polarization-based galectin inhibition assay
Assay type in all cases: binding
[1] = molecular target: galectin-9 (N-terminal domain) (Homo sapiens, UniProt O00182); details: 20° C., read-out: Calculated Kd Galectin 9 (N-terminal domain)
Source text: (§1) Identification of the substances was made by HRMS (Micromass Q-tof micro) and NMR (Bruker Ultrashield 400 plus, 400 MHz). Chemical shifts are reported downfield from Me4Si using residual […] (7.26 ppm) or CHD2OD (3.35 ppm) as reference. Chemical shifts and coupling constants were obtained from ^1H-NMR and proton resonances were assigned from COSY experiments. Purification was made by RF-HPLC (Beckman, system gold) or flash chromatography, using silica gel (Davisil 35-70 μm, 60 Å). Reactions were followed by TLC (Aluminum sheet, silica gel 60 F254) visualized with UV light, H2SO4 (aq) or an iso-vanillin/H2SO4/EtOH development solution. THF and Et2O were dried over sodium/benzophenone and distilled. CH2Cl2 was dried by molecular sieves (4 Å, 1.6 mm). Other solvents and reagents were commercially available and used without further purifications. Fluorescence polarization experiments were performed on a PolarStar instrument (BMG, Offenburg; Germany). Evaluation of 20-34 as inhibitors of galectins was performed by use of fluorescence polarization as described in the literature (Sorme et al., 2003a, 2004). Galectin concentrations and fluorescent probe choice and concentrations were as described in Cumpstey et al. 2005a, except for galectin-3 for which the probe tdga-probe described in Salomonsson et al. 2010 was used at 20 nM together with galectin-3 at 200 nM concentrations. Each inhibitor was tested in duplicate at several concentrations between 4 and 0.25 μM. All fluorescence polarization experiments were conducted at 20° C., except galectin-7 for which experiments were conducted at 0° C.

galectin-7 = galectin-7 (Homo sapiens, UniProt P47929); details: 0° C., read-out: Calculated Kd Galectin 7
Source text: as §1

galectin-1 = galectin-1 (Homo sapiens, UniProt P09382); details: 20° C., read-out: Calculated Kd Galectin 1
Source text: as §1

galectin-3 = galectin-3 (Homo sapiens, UniProt P17931); details: 20° C., tdga-probe 20 nM, galectin-3 200 nM, read-out: Calculated Kd Galectin 3
Source text: as §1

[2] = molecular target: T1, galectin-4 (N-terminal domain) (Homo sapiens, UniProt P56470); details: fluorescence polarization, 20° C.; read-out: Calculated Kd Galectin 4 (N-terminal domain)
T1 sequence (P56470 19-150 limits assumed): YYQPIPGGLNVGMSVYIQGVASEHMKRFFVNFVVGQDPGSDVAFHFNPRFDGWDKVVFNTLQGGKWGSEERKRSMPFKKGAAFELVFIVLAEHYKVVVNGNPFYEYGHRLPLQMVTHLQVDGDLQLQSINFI
Source text: as §1

[3] = molecular target: T2, galectin-8 (N-terminal domain) (Homo sapiens, UniProt O00214); details: 20° C., read-out: Calculated Kd Galectin 8 (N-terminal domain)
T2 sequence (O00214 19-152 limits assumed): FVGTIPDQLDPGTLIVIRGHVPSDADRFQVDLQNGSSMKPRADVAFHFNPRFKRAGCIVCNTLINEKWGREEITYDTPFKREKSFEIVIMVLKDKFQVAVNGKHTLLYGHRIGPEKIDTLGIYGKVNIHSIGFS
Source text: as §1

[4] = molecular target: galectin-9 (C-terminal domain) (Homo sapiens, UniProt O00182); details: 20° C., read-out: Calculated Kd Galectin 9 (C-terminal domain)
Source text: as §1

[5] = molecular target: T3, galectin-4 (C-terminal domain) (Homo sapiens, UniProt P56470); details: 20° C., read-out: Calculated Kd Galectin 4 (C-terminal domain)
T3 sequence (P56470 194-323 limits assumed): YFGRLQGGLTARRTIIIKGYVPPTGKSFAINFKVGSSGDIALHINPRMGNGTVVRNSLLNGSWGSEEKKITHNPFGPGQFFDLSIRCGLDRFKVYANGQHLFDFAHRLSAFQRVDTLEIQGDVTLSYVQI
Source text: as §1

Sequence of galectin-1 (P09382 whole entry, species assumed): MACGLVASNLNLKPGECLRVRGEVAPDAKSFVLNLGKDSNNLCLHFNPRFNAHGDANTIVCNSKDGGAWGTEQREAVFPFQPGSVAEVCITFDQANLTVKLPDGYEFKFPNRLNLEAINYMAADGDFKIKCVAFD
Sequence of galectin-9 (N-terminal domain) (O00182 17-148 limits assumed, species assumed): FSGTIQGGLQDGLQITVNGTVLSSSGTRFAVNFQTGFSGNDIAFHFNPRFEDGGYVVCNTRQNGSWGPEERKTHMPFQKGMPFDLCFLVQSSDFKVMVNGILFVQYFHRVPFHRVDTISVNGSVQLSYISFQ
Sequence of galectin-3 (P17931 whole entry, species assumed): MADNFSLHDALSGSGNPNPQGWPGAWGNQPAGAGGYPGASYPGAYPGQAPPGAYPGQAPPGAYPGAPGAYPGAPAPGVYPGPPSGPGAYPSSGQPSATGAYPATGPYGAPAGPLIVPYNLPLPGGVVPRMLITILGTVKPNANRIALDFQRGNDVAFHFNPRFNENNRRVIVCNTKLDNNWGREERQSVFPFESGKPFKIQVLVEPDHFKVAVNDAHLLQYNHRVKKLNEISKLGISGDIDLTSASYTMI
Sequence of galectin-7 (P47929 whole entry, species assumed): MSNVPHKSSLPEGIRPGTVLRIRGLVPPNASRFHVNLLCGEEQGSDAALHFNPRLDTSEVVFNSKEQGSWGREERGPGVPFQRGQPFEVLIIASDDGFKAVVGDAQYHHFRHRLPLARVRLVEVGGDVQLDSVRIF
Sequence of galectin-9 (C-terminal domain) (O00182 227-355 limits assumed, species assumed): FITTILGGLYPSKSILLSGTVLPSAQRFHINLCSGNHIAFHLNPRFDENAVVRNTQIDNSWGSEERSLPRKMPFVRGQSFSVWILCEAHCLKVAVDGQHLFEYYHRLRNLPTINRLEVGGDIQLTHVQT

Row | Compound | Kd [1] [µM] | Kd (galectin-7) [µM] | Kd (galectin-1) [µM] | Kd (galectin-3) [µM] | Kd [2] [µM] | Kd [3] [µM] | Kd [4] [µM] | Kd [5] [µM]
1 | O=C(OC1C(O)[C@H](S[C@@H]2OC(CO)[C@H](O)C(OC(=O)c3ccc4ccccc4c3)C2O)OC(CO)[C@@H]1O)c1ccc2ccccc2c1 (some centres unmarked) [Compound 35, reference compound] | 2.8 | 48 | 14.7 | 10.7 |  |  |  | 
2 | O=c1oc2ccc(F)c(F)c2cc1CO[C@H]1[C@@H](O)[C@@H](CO)O[C@@H](S[C@@H]2O[C@H](CO)[C@H](O)[C@H](OCc3cc4c(F)c(F)ccc4oc3=O)[C@H]2O)[C@@H]1O [Compound 32, Bis-{3-O-[(5,6-difluoro-2H-1-benzopyran-2-on-3-yl)-methyl]-β-D-galactopyranosyl}sulfane] | 1.1 |  | 3.9 | 0.032 | 22 | 41 | 1.5 | > 500
3 | O=c1oc2ccc(Cl)cc2cc1COC1C(O)[C@H](S[C@@H]2OC(CO)[C@H](O)C(OCc3cc4cc(Cl)ccc4oc3=O)C2O)OC(CO)[C@@H]1O (stereo partly drawn) [Compound 27, bis-{3-O-[(6-chloro-2H-1-benzopyran-2-on-3-yl)-methyl]-β-D-galactopyranosy}sulfane] | > 200 |  | 7.9 | 6 | 430 | 34 | 86 | 100
4 | O=c1oc2ccc(F)cc2cc1CO[C@H]1[C@@H](O)[C@@H](CO)O[C@@H](S[C@@H]2O[C@H](CO)[C@H](O)[C@H](OCc3cc4cc(F)ccc4oc3=O)[C@H]2O)[C@@H]1O [Compound 28, Bis-{3-O-[(6-fluoro-2H-1-benzopyran-2-on-3-yl)-methyl]-β-D-galactopyranosyl}sulfane] | 3.5 |  | 3.4 | 0.097 | 180 | 47 | 7.9 | > 1000
5 | CC(C)(C)c1ccc2oc(=O)c(COC3C(O)[C@H](S[C@@H]4OC(CO)[C@H](O)C(OCc5cc6cc(C(C)(C)C)ccc6oc5=O)C4O)OC(CO)[C@@H]3O)cc2c1 (stereo partly drawn) [Compound 26, bis-{3-O-[(6-tert-butyl-2H-1-benzopyran-2-on-3-yl)-methyl]-β-D-galactopyranosy}sulfane] | 39 |  | 25 | 8.1 | > 1000 | 62 | 17 | > 1000
6 | O=c1oc2cc(Cl)ccc2cc1CO[C@H]1[C@@H](O)[C@@H](CO)O[C@@H](S[C@@H]2O[C@H](CO)[C@H](O)[C@H](OCc3cc4ccc(Cl)cc4oc3=O)[C@H]2O)[C@@H]1O [Compound 21, bis-{3-O-[(7-chloro-2H-1-benzopyran-2-on-3-yl)-methyl]-β-D-galactopyranosyl}sulfane] | 140 | 61 | 21 | 4.7 |  | 74 |  | 
7 | Cc1ccc2cc(COC3C(O)[C@H](S[C@@H]4OC(CO)[C@H](O)C(OCc5cc6ccc(C)cc6oc5=O)C4O)OC(CO)[C@@H]3O)c(=O)oc2c1 (stereo partly drawn) [Compound 34, bis-{3-O-[(7-methyl-2H-1-benzopyran-2-on-3-yl)-methyl]-β-D-galactopyranosy}sulfane] | > 200 |  | 200 | 9.4 | > 500 | > 700 | > 500 | > 500
8 | O=c1oc2ccc(OC(F)(F)F)cc2cc1COC1C(O)[C@H](S[C@@H]2OC(CO)[C@H](O)C(OCc3cc4cc(OC(F)(F)F)ccc4oc3=O)C2O)OC(CO)[C@@H]1O (stereo partly drawn) [Compound 33, bis-{3-O-[(6-trifluoromethoxy-2H-1-benzopyran-2-on-3-yl)-methyl]-β-D-galactopyranosy}sulfane] | 29 |  | 84 | 0.95 | > 500 | 110 | 21 | > 500
9 | CO[C@@H]1OC(CO)[C@H](O)C(O)C1O (stereo partly drawn) [methyl β-D-galactoside, reference compound] | 3400 | 4800 |  |  |  |  | 5000 | 
10 | O=C(NC1C(O)[C@H](S[C@@H]2OC(CO)[C@H](O)C(NC(=O)c3ccc4ccccc4c3)C2O)OC(CO)[C@@H]1O)c1ccc2ccccc2c1 (some centres unmarked) [Compound 36, reference compound] | 0.73 | 1.7 | 9.6 | 0.16 |  | > 100 |  | 
11 | O=c1oc2cc(O)ccc2cc1COC1C(O)[C@H](S[C@@H]2OC(CO)[C@H](O)C(OCc3cc4ccc(O)cc4oc3=O)C2O)OC(CO)[C@@H]1O (stereo partly drawn) [Compound 23, bis-{3-O-[(7-hydroxy-2H-1-benzopyran-2-on-3-yl)-methyl]-β-D-galactopyranosy}sulfane] | 1.5 |  | 3.9 | 0.076 | 32 | 40 |  | > 300
12 | O=c1oc2cc(F)c(F)cc2cc1COC1C(O)[C@H](S[C@@H]2OC(CO)[C@H](O)C(OCc3cc4cc(F)c(F)cc4oc3=O)C2O)OC(CO)[C@@H]1O (stereo partly drawn) [Compound 29, bis-{3-O-[(6,7-difluoro-2H-1-benzopyran-2-on-3-yl)-methyl]-β-D-galactopyranosy}sulfane] | 3 |  | 1.6 | 0.11 | 44 | 19 | 2.3 | 220
13 | O=c1oc2ccc(O)cc2cc1COC1C(O)[C@H](S[C@@H]2OC(CO)[C@H](O)C(OCc3cc4cc(O)ccc4oc3=O)C2O)OC(CO)[C@@H]1O (stereo partly drawn) [Compound 24, bis-{3-O-[(6-hydroxy-2H-1-benzopyran-2-on-3-yl)-methyl]-β-D-galactopyranosy}sulfane] | 8.9 |  | 20 | 0.15 | 180 | 140 |  | > 300
14 | O=c1oc2ccc3ccccc3c2cc1CO[C@H]1[C@@H](O)[C@@H](CO)O[C@@H](S[C@@H]2O[C@H](CO)[C@H](O)[C@H](OCc3cc4c(ccc5ccccc54)oc3=O)[C@H]2O)[C@@H]1O [Compound 25, bis-{3-O-[(3H-naphtho[2,1-b]pyran-3-on-2-yl)-methyl]-β-D-galactopyranosyl}sulfane] | 4.7 |  | 22 | 0.51 | 110 | > 300 |  | > 300
15 | O=c1oc2cccc(F)c2cc1CO[C@H]1[C@@H](O)[C@@H](CO)O[C@@H](S[C@@H]2O[C@H](CO)[C@H](O)[C@H](OCc3cc4c(F)cccc4oc3=O)[C@H]2O)[C@@H]1O [Compound 31, Bis-{3-O-[(5-fluoro-2H-1-benzopyran-2-on-3-yl)-methyl]-β-D-galactopyranosyl}sulfane] | 7 |  | 8.7 | 0.061 | 46 | 28 | 5.5 | 540
16 | O=c1oc2cccc(Cl)c2cc1CO[C@H]1[C@@H](O)[C@@H](CO)O[C@@H](S[C@@H]2O[C@H](CO)[C@H](O)[C@H](OCc3cc4c(Cl)cccc4oc3=O)[C@H]2O)[C@@H]1O [Compound 30, bis-{3-O-[(5-chloro-2H-1-benzopyran-2-on-3-yl)-methyl]-β-D-galactopyranosyl}sulfane] | 54 |  | 25 | 0.17 | 55 | 28 | 16 | > 1000
